Legend:
BACE1 [1] = target: T1, BACE1 (Homo sapiens, UniProt P56817); assay: Fluorometric BACE1 inhibition assay; assay type: biochemical; conditions: three independent experiments; log dose inhibition curve; read-out: IC50 (mean ± SD) BACE1
T1 construct: purchased Invitrogen (Pan Vera, Madison, WI, USA)
Experimental: Fluorometric assays with a recombinant human BACE1 or TACE were conducted according to manufacturer instructions. […] The inhibition ratio was obtained using the following equation:Inhibition (%) = [1 − (S − S0)/(C − C0)] × 100 where C was the fluorescence of control (enzyme, assay buffer, and substrate) after 60 min of incubation, C0 was the fluorescence of control at time 0, S was the fluorescence of tested samples (enzyme, sample solution, and substrate) after 60 min of incubation, and S0 was the fluorescence of the tested samples at time 0.

[2] = target: T2, AChE from Electrophorus electricus (electric eel) (Electrophorus electricus, UniProt O42275); assay: Colorimetric AChE inhibition assay (DTNB); assay type: biochemical; conditions: three independent experiments; log dose inhibition curve; read-out: IC50 (mean ± SD) AChE
T2 construct: purchased Sigma-Aldrich (St. Louis, MO, USA)
T2 sequence (O42275 24-633): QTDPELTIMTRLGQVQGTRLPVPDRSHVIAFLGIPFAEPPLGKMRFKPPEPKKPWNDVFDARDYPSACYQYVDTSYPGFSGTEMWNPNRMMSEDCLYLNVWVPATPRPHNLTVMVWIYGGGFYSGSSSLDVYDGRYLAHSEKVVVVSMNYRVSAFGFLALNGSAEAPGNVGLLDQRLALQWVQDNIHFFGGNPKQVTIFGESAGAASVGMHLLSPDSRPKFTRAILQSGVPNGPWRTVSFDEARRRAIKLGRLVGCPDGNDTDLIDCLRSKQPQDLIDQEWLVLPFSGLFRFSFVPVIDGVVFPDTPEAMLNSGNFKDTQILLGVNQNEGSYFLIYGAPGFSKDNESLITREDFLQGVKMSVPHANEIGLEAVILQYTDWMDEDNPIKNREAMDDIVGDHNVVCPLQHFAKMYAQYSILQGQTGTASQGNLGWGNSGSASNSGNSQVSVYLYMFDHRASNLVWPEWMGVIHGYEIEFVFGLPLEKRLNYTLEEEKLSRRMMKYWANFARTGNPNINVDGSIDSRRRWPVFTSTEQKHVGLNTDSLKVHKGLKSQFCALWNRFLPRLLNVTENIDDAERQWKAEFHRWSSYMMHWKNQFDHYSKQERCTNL
Experimental: The colorimetric assays, including AChE, trypsin, chymotrypsin, and elastase were assayed according to previously described methods [36]. […] All reactions were performed in 96-well plates in triplicate and recorded using a microplate spectrophotometer.

[3] = target: T3, human recombinant TACE (α-secretase) (Homo sapiens, UniProt P78536); assay: Fluorometric TACE inhibition assay; assay type: biochemical; conditions: mean ± SD, read-out: Inhibitory activity TACE (α-Secretase); for inhibition at 50 µM: 50 μM compound; for inhibition at 100 µM: 100 μM compound
T3 construct: purchased R&D Systems (Minneapolis, MN, USA)
T3 sequence (P78536 215-824): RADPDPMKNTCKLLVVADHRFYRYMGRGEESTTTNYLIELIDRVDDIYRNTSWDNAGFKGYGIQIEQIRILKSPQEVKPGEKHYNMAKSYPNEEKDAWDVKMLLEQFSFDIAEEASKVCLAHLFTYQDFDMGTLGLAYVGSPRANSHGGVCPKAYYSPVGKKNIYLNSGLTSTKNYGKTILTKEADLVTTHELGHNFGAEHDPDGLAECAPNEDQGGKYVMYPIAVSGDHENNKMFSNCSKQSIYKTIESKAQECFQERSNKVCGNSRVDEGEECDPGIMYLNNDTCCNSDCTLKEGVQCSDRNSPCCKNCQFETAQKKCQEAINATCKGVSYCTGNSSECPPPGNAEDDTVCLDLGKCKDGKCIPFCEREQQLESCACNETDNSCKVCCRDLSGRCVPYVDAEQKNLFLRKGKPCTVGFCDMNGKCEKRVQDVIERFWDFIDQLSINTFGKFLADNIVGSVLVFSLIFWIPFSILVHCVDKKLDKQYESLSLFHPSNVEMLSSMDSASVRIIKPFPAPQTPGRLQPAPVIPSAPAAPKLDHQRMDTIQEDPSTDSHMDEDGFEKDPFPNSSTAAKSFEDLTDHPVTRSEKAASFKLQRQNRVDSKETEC
Experimental: (§1) Fluorometric assays with a recombinant human BACE1 or TACE were conducted according to manufacturer instructions. Briefly, reaction mixtures containing human recombinant BACE1 (1.0 U/mL), the substrate (75 μM in 50 mM ammonium bicarbonate), and phlorotannins dissolved in an assay buffer (50 mM sodium acetate, pH 4.5) were incubated in darkness for 60 min at 25 °C in well plates. The increase in fluorescence intensity produced by substrate hydrolysis was observed on a fluorescence microplate reader with excitation and emission wavelengths of 545 and 590 nm, respectively. The inhibition ratio was obtained using the following equation:Inhibition (%) = [1 − (S − S0)/(C − C0)] × 100 where C was the fluorescence of control (enzyme, assay buffer, and substrate) after 60 min of incubation, C0 was the fluorescence of control at time 0, S was the fluorescence of tested samples (enzyme, sample solution, and substrate) after 60 min of incubation, and S0 was the fluorescence of the tested samples at time 0.
A human recombinant TACE (0.1 ppm in 25 mM Tris buffer), the substrate (APP peptide […] using EDANS/DABCYL), and phlorotannins were dissolved in an assay buffer, which were then combined and incubated for 60 min in the dark at 25 °C. The increase in fluorescence intensity produced by substrate hydrolysis was observed on a fluorescence microplate reader with excitation and emission wavelengths of 320 and 405 nm, respectively.

trypsin = assay: Colorimetric trypsin inhibition assay; assay type: biochemical; conditions: mean ± SD
Experimental: (§2) The colorimetric assays, including AChE, trypsin, chymotrypsin, and elastase were assayed according to previously described methods. The hydrolysis of AChE was monitored according to the formation of yellow 5-thio-2-nitrobenzoate anions at 405 nm for 15 min, which were produced by the reaction of DTNB with thiocholine released from ACh. All reactions were performed in 96-well plates in triplicate and recorded using a microplate spectrophotometer.
(§3) N-benzoyl-L-Arg-pNA, N-benzoyl-L-Tyr-pNA, and N-succinyl-Ala-Ala-Ala-pNA were used as substrates to assay the inhibition of trypsin, chymotrypsin, and elastase, respectively. Enzyme, Tris-HCl buffer (0.05 M, in 0.02 M CaCl2, pH 8.2), and phlorotannins were incubated for 10 min at 25 °C; then, substrate was added for 30 min at 37 °C. The absorbance was recorded at 410 nm. The inhibition ratio was obtained using the following equation:Inhibition (%) = {[1 − (A − B)]/control} × 100 where A was the absorbance of the control (enzyme, assay buffer, and substrate) after 60 min of incubation, and B was the absorbance of tested sample (assay buffer and sample solution) after 60 min of incubation.

chymotrypsin = target: T4, chymotrypsin (Bos taurus, UniProt P00766); assay: Colorimetric chymotrypsin inhibition assay; assay type: biochemical; conditions: mean ± SD, read-out: Inhibitory activity Chymotrypsin; for inhibition at 50 µM: 50 μM compound; for inhibition at 100 µM: 100 μM compound
T4 construct: purchased Sigma-Aldrich (St. Louis, MO, USA)
Experimental: as §2, §3

elastase = target: T5, elastase (Sus scrofa, UniProt P00772); assay: Colorimetric elastase inhibition assay; assay type: biochemical; conditions: mean ± SD, read-out: Inhibitory activity Elastase; for inhibition at 50 µM: 50 μM compound; for inhibition at 100 µM: 100 μM compound
T5 construct: purchased Sigma-Aldrich (St. Louis, MO, USA)
T5 sequence (P00772 27-266): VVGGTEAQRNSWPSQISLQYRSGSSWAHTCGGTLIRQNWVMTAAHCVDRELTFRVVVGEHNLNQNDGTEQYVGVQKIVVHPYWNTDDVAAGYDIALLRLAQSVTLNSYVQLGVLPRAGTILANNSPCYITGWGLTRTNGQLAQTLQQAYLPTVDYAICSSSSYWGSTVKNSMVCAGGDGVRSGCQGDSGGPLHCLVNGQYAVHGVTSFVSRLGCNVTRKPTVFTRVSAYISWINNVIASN
Experimental: as §2, §3

BACE1 [4] = target: T1, BACE1; assay: Enzyme kinetic study of BACE1 inhibition (Dixon and Lineweaver–Burk plots); assay type: biochemical; conditions: for Ki: Dixon plot; for Inhibition Mode BACE1: Lineweaver–Burk plot
Experimental: as §1
(§4) To evaluate the kinetic mechanisms of phlorotannins towards BACE1 and AChE, Dixon and Lineweaver–Burk plots were conducted by various concentrations of substrate and inhibitors. Kinetic parameters such as Ki, Vmax, and Km values were calculated by Sigma Plot 12.3 (Systat Software, Inc., San Jose, CA, USA)

AChE = target: T6, AChE (Electrophorus electricus, UniProt O42275); assay: Enzyme kinetic study of AChE inhibition (Dixon and Lineweaver–Burk plots); assay type: biochemical, Electrophorus electricus (electric eel); conditions: for Ki: Dixon plot; for Inhibition Mode AChE: Lineweaver–Burk plot
T6 construct: purchased Sigma-Aldrich (St. Louis, MO, USA)
T6 sequence (O42275 24-633): as the sequence (O42275 24-633) above
Experimental: as §2, §4

hyaluronidase = conditions: previous study; read-out: IC50 against hyaluronidase; cited from earlier work
[5] = tested on: HIV-reverse transcriptase; conditions: compared with 8,4′′′-dieckol (diphenyl ether linkage); cited from earlier work
[6] = cited from earlier work
BACE1 [7] = conditions: phlorotannins from Eisenia bicyclis; cited from earlier work
[8] = tested on: ethanol-induced memory impairment mice; conditions: oral administration, 10 mg/kg; cited from earlier work
[9] = tested on: murine hippocampus neuronal cells; conditions: cited from earlier work
[10] = cited from earlier work; remark: listed apart in the source

T1 sequence (P56817 46-501): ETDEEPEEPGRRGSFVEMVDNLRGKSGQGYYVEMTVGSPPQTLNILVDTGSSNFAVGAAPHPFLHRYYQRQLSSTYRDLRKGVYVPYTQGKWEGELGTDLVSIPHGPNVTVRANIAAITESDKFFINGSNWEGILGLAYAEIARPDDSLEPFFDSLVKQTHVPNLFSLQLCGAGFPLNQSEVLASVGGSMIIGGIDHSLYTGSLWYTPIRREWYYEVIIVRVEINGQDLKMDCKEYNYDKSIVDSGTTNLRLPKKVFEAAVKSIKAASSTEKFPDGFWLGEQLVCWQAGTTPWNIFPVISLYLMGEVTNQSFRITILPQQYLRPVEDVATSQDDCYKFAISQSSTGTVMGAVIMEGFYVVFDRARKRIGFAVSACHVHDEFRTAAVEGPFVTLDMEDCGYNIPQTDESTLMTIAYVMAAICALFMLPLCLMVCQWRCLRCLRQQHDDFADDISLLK

With `Oc1cc(O)cc(Oc2c(O)cc(O)c3c2Oc2c(cc(O)c(-c4c(O)cc5c(c4O)Oc4c(Oc6cc(O)cc(O)c6)c(O)cc(O)c4O5)c2O)O3)c1` [8,8′-Bieckol, 9-(3,5-dihydroxyphenoxy)-2-[9-(3,5-dihydroxyphenoxy)-1,3,6,8-tetrahydroxydibenzo-p-dioxin-2-yl]dibenzo-p-dioxin-1,3,6,8-tetrol] as the compound, how does the IC50 (BACE1 [1]) read?
The IC50 was 1.62 ± 0.14 µM.

What about the IC50 [2] of the same compound?
The IC50 was 4.59 ± 0.32 µM.

And the inhibition at 50 µM [3]?
Its inhibition at 50 µM is 11.1 ± 0.53%.

And the inhibition at 100 µM [3]?
Its inhibition at 100 µM is 3.57 ± 0.05%.

What about the “Inhibitory activity Trypsin” value (trypsin; 50 μM compound) of the same compound?
Its value is 2.98 ± 0.26%.

And the “Inhibitory activity Trypsin” value (trypsin; 100 μM compound)?
The value was −23.05 ± 0.32%.

What about the inhibition at 50 µM (chymotrypsin) of the same compound?
Its inhibition at 50 µM is 0.86 ± 0.02%.

And the inhibition at 100 µM (chymotrypsin)?
Its inhibition at 100 µM is 0.33 ± 0.01%.

And the inhibition at 50 µM (elastase)?
The inhibition at 50 µM was 5.26 ± 0.43%.

What about the inhibition at 100 µM (elastase) of the same compound?
The inhibition at 100 µM was 7.52 ± 0.24%.

And the Ki (BACE1 [4])?
The Ki was 13.9 µM.

And the “Inhibition Mode BACE1” value (BACE1 [4])?
Its value is “Non-competitive”.

And the Ki (AChE)?
The Ki was 11.4 µM.

And the “Inhibition Mode AChE” value (AChE)?
The value was “Competitive”.

And the IC50 (hyaluronidase)?
The IC50 was 40 µM.

What about the “Inhibitory effect on HIV-reverse transcriptase relative to 8,4′′′-dieckol” value [5] of the same compound?
The value was “tenfold higher”.

What about the “Lipinski's requirements for acceptable oral bioavailability” value [6] of the same compound?
The value was “have limitations on bioavailability”.

With `Oc1cc(O)cc(Oc2c(O)cc(O)c3c2Oc2c(O)cc(Oc4c(O)cc(Oc5c(O)cc(O)c6c5Oc5c(O)cc(O)cc5O6)cc4O)cc2O3)c1` [Dieckol, 4-[4-[6-(3,5-dihydroxyphenoxy)-4,7,9-trihydroxydibenzo-p-dioxin-2-yl]oxy-3,5-dihydroxyphenoxy]dibenzo-p-dioxin-1,3,6,8-tetrol] as the compound, how does the IC50 (BACE1 [1]) read?
The IC50 was 2.34 ± 0.1 µM.

And the IC50 [2]?
The IC50 was 5.69 ± 0.42 µM.

And the inhibition at 50 µM [3]?
The inhibition at 50 µM was 16.9 ± 1.01%.

And the inhibition at 100 µM [3]?
Its inhibition at 100 µM is 18.3 ± 0.41%.

What about the “Inhibitory activity Trypsin” value (trypsin; 50 μM compound) of the same compound?
Its value is 6.44 ± 0.76%.

What about the “Inhibitory activity Trypsin” value (trypsin; 100 μM compound) of the same compound?
Its value is −16.64 ± 1.40%.

What about the inhibition at 50 µM (chymotrypsin) of the same compound?
Its inhibition at 50 µM is 4.39 ± 0.44%.

And the inhibition at 100 µM (chymotrypsin)?
Its inhibition at 100 µM is 1.43 ± 0.02%.

And the inhibition at 50 µM (elastase)?
Its inhibition at 50 µM is 6.7 ± 0.85%.

And the inhibition at 100 µM (elastase)?
The inhibition at 100 µM was 6.2 ± 0.14%.

And the Ki (BACE1 [4])?
Its Ki is 20.1 µM.

And the “Inhibition Mode BACE1” value (BACE1 [4])?
Its value is “Non-competitive”.

And the Ki (AChE)?
The Ki was 12.3 µM.

What about the “Inhibition Mode AChE” value (AChE) of the same compound?
The value was “Competitive”.

And the IC50 (hyaluronidase)?
The IC50 was 120 µM.

What about the “BACE1 inhibitory effect, relative” value (BACE1 [7]) of the same compound?
The value was “stronger than eckol”.

And the Cognitive ability [8]?
The Cognitive ability was “improved cognitive ability”.

And the H2O2-induced oxidative stress [9]?
Its H2O2-induced oxidative stress is “suppressed H2O2-induced oxidative stress”.

And the “Lipinski's requirements for acceptable oral bioavailability” value [6]?
The value was “have limitations on bioavailability”.

And the “Penetration into the brain across the blood–brain barrier” value [10]?
Its value is “successfully penetrated into the brain via crossing the blood–brain barrier”.

What does the source list for `Oc1cc(O)cc(Oc2c(O)cc(O)c3c2Oc2c(O)cc(O)cc2O3)c1` [Eckol, 4-(3,5-dihydroxyphenoxy)dibenzo-p-dioxin-1,3,6,8-tetrol]?
IC50 (BACE1 [1]): 7.67 ± 0.71 µM; IC50 [2]: 10 ± 0.94 µM; inhibition at 50 µM [3]: 19.3 ± 1.52%; inhibition at 100 µM [3]: 10.6 ± 0.53%; Inhibitory activity Trypsin (trypsin; 50 μM compound): 3.59 ± 0.57%; Inhibitory activity Trypsin (trypsin; 100 μM compound): 4.73 ± 0.25%; inhibition at 50 µM (chymotrypsin): 1.48 ± 0.19%; inhibition at 100 µM (chymotrypsin): 2.65 ± 0.06%; inhibition at 50 µM (elastase): 6.06 ± 0.13%; inhibition at 100 µM (elastase): 4.37 ± 0.27%; Ki (BACE1 [4]): 31.2 µM; Inhibition Mode BACE1 (BACE1 [4]): Non-competitive; Ki (AChE): 37.3 µM; Inhibition Mode AChE (AChE): Competitive; IC50 (hyaluronidase): > 800 µM; H2O2-induced oxidative stress [9]: suppressed H2O2-induced oxidative stress; Lipinski's requirements for acceptable oral bioavailability [6]: meets Lipinski′s requirements for acceptable oral bioavailability

Source: publication PMC6410325, “Dual BACE1 and Cholinesterase Inhibitory Effects of Phlorotannins from Ecklonia cava—An In Vitro and in Silico Study” (Marine Drugs, 2019)
